Like-named read-outs stand apart in the source and are kept apart here. No end group written: not given here.

The assay addresses T1, Nluc-PAC1R (Homo sapiens, UniProt P41586).
T1 construct: A construct containing N-terminal NLuc immediately after the native signal peptide of PAC1R was also generated in pcDNA3.1; expressed in transfected cells; host or cells: COS-7 (transient, PEI; whole cells at 4 °C)
T1 sequence (P41586 21-468): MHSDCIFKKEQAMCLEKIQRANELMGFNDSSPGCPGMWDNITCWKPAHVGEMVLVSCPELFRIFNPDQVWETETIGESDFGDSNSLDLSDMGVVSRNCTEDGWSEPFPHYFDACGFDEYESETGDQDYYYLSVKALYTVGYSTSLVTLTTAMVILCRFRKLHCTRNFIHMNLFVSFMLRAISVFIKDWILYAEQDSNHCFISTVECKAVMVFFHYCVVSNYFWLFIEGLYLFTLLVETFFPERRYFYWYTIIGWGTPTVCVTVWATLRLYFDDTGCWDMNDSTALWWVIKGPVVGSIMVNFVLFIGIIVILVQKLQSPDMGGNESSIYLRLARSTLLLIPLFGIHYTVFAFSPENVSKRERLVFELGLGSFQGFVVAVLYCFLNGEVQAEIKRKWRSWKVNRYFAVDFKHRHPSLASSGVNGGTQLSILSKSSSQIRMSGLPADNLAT
The assay is described as follows: NanoBRET competition binding, AF568-PACAP27 probe (Fig. 5c). The following applies: COS-7, 30 nM AF568-PACAP27, 4 °C, read-out: pIC50, PAC1R competition binding (converted). The text has this:
An HA signal peptide was inserted in place of the native signal peptide of the receptors and a FLAG epitope was incorporated into the receptor N-terminus immediately after the signal peptide. A His tag was fused to C-terminus of the receptor. 3C protease cleavage sites were inserted between both the FLAG and His tags and the receptor. […] The following PAC1R and VPAC1R mutants were also generated using Quikchange mutagenesis: PAC1R C25A, PAC1R C219A, PAC1R C25A/C219A, VPAC1R C37A and VPAC1R C208A. For all PAC1R constructs, we used the PAC1R null (PAC1n) splice variant. A construct containing N-terminal NLuc immediately after the native signal peptide of PAC1R was also generated in pcDNA3.1.
Therefore, the lysine residue at position 21 was replaced with a cysteine residue (^21C) for the facile conjugation of fluorophore via thiol-maleimide click reaction. The resulting target peptide ^21C-PACAP27 (Mutant fragment) with amidated C-terminus was synthesized by standard Fmoc-solid phase peptide synthesis method[43] and purified by Reversed-phase high-performance liquid chromatography (RP-HPLC). […] of Alexa Fluor™ 568F was purchased from ThermoFisher Scientific (Catalog number: A20003). The thiol-maleimide conjugation reaction was carried out by our published protocol. […] The molecular weight of the probe was confirmed by Matrix-Assisted Laser Desorption/Ionization Time-of-Flight Mass Spectrometry (MALDI-TOF MS).
COS-7 cells were plated in 10 cm dishes at approximately 1 million cells/dish. Cells were transfected 24 h later, using 3 μg of Nluc-PAC1R DNA using the method described above and then seeded at a density of 15,000 cells per well in white-bottom 96-well culturplates 24 h prior to assay. On the day of the assay, cell culture media was replaced with BRET buffer (0.1% ovalbumin, 10 mM HEPES, 1x HBSS, pH 7.45) and incubated at 4 °C for two hours. […] After 1.5 h, furimazine (10 μM final concentration) was added to each well and the plate incubated for a further 30 min in the dark at 4 °C before reading. Filtered light emissions were measured at 460±40 nm (donor channel) and at 610-LP nm (long pass) (acceptor channel) using a PHERAstar plate reader (BMG Labtech). The raw NanoBRET ratio was calculated by dividing the luminescence from the acceptor channel by the donor channel. Data were expressed as % AF568-PACAP27 BRET signal in the absence of competing ligand.
The pharmacological data in figures and tables are reported as mean + standard error of the mean (SEM) with the number of biological replicates indicated in the figure and table legends where “n” represents the number of biological replicates performed. Concentration-response data were analyzed in GraphPad Prism version 9.4.0 using a three-parameter logistic curve to derive pEC50 values for the cyclic AMP accumulation. Competition binding data were analyzed in GraphPad Prism using the one site—Fit log IC50 model to derive pIC50 values. For the cysteine mutagenesis data, comparisons of multiple different groups were performed using one-way analysis of variance (ANOVA), followed by Dunnett’s post-hoc test with the control group being the WT receptor, with significance accepted at p < 0.05. For the chimeric peptide data, comparisons of multiple different groups were performed using one-way ANOVA, followed by Tukey’s post-hoc test, with significance accepted at p < 0.05.

On to `CC[C@H](C)[C@H](NC(=O)[C@H](C)NC(=O)[C@H](CC(=O)O)NC(=O)[C@H](CO)NC(=O)[C@@H](N)Cc1cnc[nH]1)C(=O)N[C@@H](Cc1ccccc1)C(=O)N[C@H](C(=O)N[C@@H](CC(=O)O)C(=O)N[C@@H](CO)C(=O)N[C@@H](Cc1ccc(O)cc1)C(=O)N[C@@H](CO)C(=O)N[C@@H](CCCNC(=N)N)C(=O)N[C@@H](Cc1ccc(O)cc1)C(=O)N[C@@H](CCCNC(=N)N)C(=O)N[C@@H](CCCCN)C(=O)N[C@@H](CCC(N)=O)C(=O)N[C@@H](CCSC)C(=O)N[C@@H](C)C(=O)N[C@H](C(=O)N[C@@H](CCCCN)C(=O)N[C@@H](CCCCN)C(=O)N[C@@H](Cc1ccc(O)cc1)C(=O)N[C@@H](CC(C)C)C(=O)N[C@@H](C)C(=O)N[C@@H](C)C(=O)N[C@H](C(=O)N[C@@H](CC(C)C)C(N)=O)C(C)C)C(C)C)[C@@H](C)O` [Ala4 PACAP27], for which the IC50 by setting is: (replicate n=1) 0.695 µM; (replicate n=2) 1.97 µM; (replicate n=3) 0.546 µM; (replicate n=4) 0.918 µM; (replicate n=5) 2.86 µM.
On to “HSDGVFTDNYTRLRKQMAVKKYLNSILN-NH2 [Gly4 VIP]”, for which the IC50 was 7.55 µM (replicate n=1); 5.5 µM (replicate n=2); 7.11 µM (replicate n=3); 3.4 µM (replicate n=4); 1.14 µM (replicate n=5).

The values are drawn from article PMC9668914, “Understanding VPAC receptor family peptide binding and selectivity” (Nature Communications, 2022).
